Patent US4794104A, “Pharmaceutical compositions containing ACTH fragments for the therapy of shock conditions and of respiratory and cardiocirculatory insufficiencies” (priority 1986, dated 1988)

How the values were obtained:
shock = conditions: in vivo; cited from earlier work
[1] = system: hypovolemic shock (severe hypotension induced by bleeding) in rats; assay: Hypovolemic shock by bleeding in anesthetized rats: mean arterial pressure and survival after i.v. bolus; assay type: in vivo, female Wistar rats; conditions: for Mean arterial pressure, 15-30 min. after treatment / Mean arterial pressure, after bleeding / Mean arterial pressure, before bleeding: mean ± S.E.; for Mean arterial pressure, after bleeding: before treatment; for Mean arterial pressure, before bleeding: baseline before bleeding
Method: Intact and adrenalectomized female Wistar rats (Nossan, Correzzano, Milano, Italy) weighing 250 to 300 g, were used. Following anesthetization and heparinization a common carotid artery and an iliac vein were cannulated in rats. Arterial blood pressure was recorded by means of a pressure transducer (Statham P23 Db) connected to a polygraph (Battaglia-Rangoni, Bologna, Italy). […] Hypovolemic shock was produced by intermittently withdrawing blood from the venous catheter until mean arterial pressure fell to 16-30 mm Hg. […] Following bleeding and mean blood pressure stabilization in the range of 16-30 mm Hg, animals were given intravenous bolus of either ACTH fragments. Control animals were intravenously injected with the same volume of saline (0.1 ml/100 g of body weight).

[2] = Toxicity and side-effects of ACTH fragments (general statement)
[3] = group later given 160 μg/kg i.v.
[4] = group later given 40 μg/kg i.v.
[5] = group later given 80 μg/kg i.v.

| Molecule | No. of deaths 120 min. after treatment ([1]; 160 μg/kg i.v. after bleeding) | Mean arterial pressure, 15-30 min. after treatment ([1]; 160 μg/kg i.v. after bleeding) | Mean arterial pressure, after bleeding [1, 3] | Mean arterial pressure, before bleeding [1, 3] | other results |
| --- | --- | --- | --- | --- | --- |
| C=CCN1CC[C@]23c4c5ccc(O)c4O[C@H]2C(=O)CC[C@@]3(O)[C@H]1C5 [naloxone] |  |  |  |  | Dosage therapeutically active in shock (shock): about 1 mg/kg |
| ACTH (1-13) (SYSMEHFRWGKPV; Corticotropin; UniProt P01189 138-150, looked up, fragment) [ACTH-(1-13)] | 0 | 34.50 ± 1.32 mm Hg | 15.75 ± 1.31 mm Hg | 66.25 ± 9.14 mm Hg |  |
| ACTH (1-16) (SYSMEHFRWGKPVGKK; Corticotropin; UniProt P01189 138-153, looked up, fragment) [ACTH-(1-16)] | 0 | 54.50 ± 2.02 mm Hg | 15.50 ± 2.53 mm Hg | 78.25 ± 12.46 mm Hg |  |
| ACTH (1-17) [ACTH-(1-17)] | 0 | 41.50 ± 3.75 mm Hg | 15.75 ± 2.29 mm Hg | 57.50 ± 7.17 mm Hg |  |
| ACTH (1-18) (SYSMEHFRWGKPVGKKRR; Corticotropin; UniProt P01189 138-155, looked up, fragment) [ACTH-(1-18)] | 0 | 38.50 ± 1.85 mm Hg | 15.00 ± 2.12 mm Hg | 53.00 ± 4.88 mm Hg |  |
| ACTH (1-24) [ACTH-(1-24)] | 0 | 75.80 ± 8.45 mm Hg | 23.15 ± 2.90 mm Hg | 82.40 ± 10.75 mm Hg | No. of deaths 120 min. after treatment ([1]; 40 μg/kg i.v. after bleeding): 0; Mean arterial pressure, 15-30 min. after treatment ([1]; 40 μg/kg i.v. after bleeding): 39.40 ± 6.32 mm Hg; No. of deaths 120 min. after treatment ([1]; 80 μg/kg i.v. after bleeding): 0; Mean arterial pressure, 15-30 min. after treatment ([1]; 80 μg/kg i.v. after bleeding): 59.48 ± 8.10 mm Hg; Mean arterial pressure, after bleeding [1, 4]: 17.40 ± 2.68 mm Hg; Mean arterial pressure, before bleeding [1, 4]: 82.33 ± 11.73 mm Hg; Mean arterial pressure, after bleeding [1, 5]: 19.23 ± 3.65 mm Hg; Mean arterial pressure, before bleeding [1, 5]: 80.15 ± 9.43 mm Hg; Toxicity / side-effects [2]: substantially non-toxic |
| ACTH (1-39) (SYSMEHFRWGKPVGKKRRPVKVYPNGAEDESAEAFPLEF; Corticotropin; UniProt P01189 138-176, looked up) [ACTH-(1-39), full-length ACTH (1-39)] | 0 | 35.75 ± 5.65 mm Hg | 14.75 ± 2.32 mm Hg | 88.25 ± 2.17 mm Hg |  |
| ACTH (4-10) (MEHFRWG; Corticotropin; UniProt P01189 141-147, looked up, fragment) [ACTH-(4-10)] | 0 | 47.25 ± 6.18 mm Hg | 13.75 ± 2.53 mm Hg | 63.25 ±6.76 mm Hg |  |
| ACTH(25-39) (NGAEDESAEAFPLEF; Corticotropin; UniProt P01189 162-176, looked up, fragment) | 1 | 25.50 ± 4.40 mm Hg | 11.50 ± 1.34 mm Hg | 78.17 ± 7.25 mm Hg |  |
